Melting point data for two compounds are collected here from US6878725B2, “Serine protease inhibitors” (Eli Lilly and Company, priority 2001, dated 2005).

One may read the melting point as the temperature, or range, at which the solid turns liquid. In turn, `Cl.O=C(N[C@@H](C(=O)N1CCC(Nc2ccncc2)CC1)c1ccccc1)c1ccc2cc[nH]c2c1` yielded a melting point of 205 to 215 °C.
As for `O=C(N[C@@H](C(=O)N1CCC(Nc2ccccn2)CC1)c1ccccc1)c1ccc2cc[nH]c2c1` [Example 39, 1-(Indole-6-carbonyl-D-phenylglycinyl)-4-(pyridin-2-ylamino)piperidine], the figure is 128 to 134 °C.
